# Measurements published in patent US20200214324A1, “Masking Bitter Flavors” (Board of Supervisors of Louisiana State University and …, priority 2009, published 2020).
# Where two headings read alike, the source gives them in different places.
# Key:
# [1] = has been reported; cited from earlier work
# [2] = taste of the mogroside itself and blocking of bitter tastes; assay type: in vivo
# Description: In many (but not necessarily all) uses of the present invention, it is preferred to use levels of mogroside below the threshold at which the mogroside imparts a sweetening effect. […] Mogroside V is sweet. Mogroside III has been reported to be tasteless. […] If desired, it should be possible to use Mogroside III in higher concentration than Mogroside V to block bitter or other unwanted tastes, without imparting any sweetening effect.
# [3] = blind tasting of poached chicken liver and chicken gizzard puree; assay type: in vivo
# Experimental: In initial experiments, Mogroside V was tested at varying levels from 100-500 ppm. […] Mogroside V was added to a chicken liver and chicken gizzard puree, and the puree was poached to an internal temperature of 74° C. A control puree with no mogroside was identically cooked. Six individuals tasted the samples blind and could easily differentiate them.
# [4] = sodium reduction blends tested on whole wheat crackers; assay type: in vivo
# Experimental: (§1) These sodium reduction blends were tested with red beans, navy beans, crackers, and potato chips. Results are shown in Table III (in which “M” is an abbreviation for Mogroside V.)
# [5] = sodium reduction blends tested on red beans; assay type: in vivo
# Experimental: as §1
# [6] = sodium reduction blends tested on navy beans; assay type: in vivo
# Experimental: as §1
# [7] = sodium reduction blends tested on potato chips; assay type: in vivo
# Experimental: as §1
# [8] = sodium reduction blends tested on shredded wheat crackers; assay type: in vivo
# Experimental: as §1
compound,measurement,setting,value
C[C@H](CC[C@@H](O[C@@H]1O[C@H](CO[C@@H]2O[C@H](CO)[C@@H](O)[C@H](O)[C@H]2O)[C@@H](O)[C@H](O)[C@H]1O)C(C)(C)O)[C@H]1CC[C@@]2(C)[C@@H]3CC=C4[C@@H](CC[C@H](O[C@@H]5O[C@H](CO)[C@@H](O)[C@H](O)[C@H]5O)C4(C)C)[C@]3(C)[C@H](O)C[C@]12C [Mogroside III],taste of the compound itself,[1],tasteless
same,blocking of bitter tastes,[2]; preliminary tests,effectively blocks bitter tastes
C[C@H](CC[C@@H](O[C@@H]1O[C@H](CO[C@@H]2O[C@H](CO)[C@@H](O)[C@H](O)[C@H]2O)[C@@H](O)[C@H](O)[C@H]1O[C@@H]1O[C@H](CO)[C@@H](O)[C@H](O)[C@H]1O)C(C)(C)O)[C@H]1CC[C@@]2(C)[C@@H]3CC=C4[C@@H](CC[C@H](O[C@@H]5O[C@H](CO[C@@H]6O[C@H](CO)[C@@H](O)[C@H](O)[C@H]6O)[C@@H](O)[C@H](O)[C@H]5O)C4(C)C)[C@]3(C)[C@H](O)C[C@]12C [Mogroside V],taste description by six blind tasters,"[3]; 150-250 ppm, puree poached to 74° C., control livery, organy, bloody","slightly sweet, “bologna-like,” and “bland.”"
same,effect above the preferred range,[3]; above about 250 ppm,a very sweet taste developed
same,effect below the preferred range,[3]; below about 150 ppm,the effect was minimal
same,preferred levels of mogroside,"[3]; initial experiments, tested 100-500 ppm",150-250 ppm
same,preference of testers,"[3]; samples with mogroside vs control puree, six individuals",All testers preferred the samples with mogroside
same,level preferred by the majority of testers,[3]; tested 100-500 ppm,200 ppm
same,taste of the compound itself,[2]; in vivo,sweet
[Cl-].[Na+] [NaCl],Overall Taste,[4],7.04
same,Saltiness,[4],6.96
same,Overall Taste,[5],6.79
same,Saltiness,[5],6.63
same,Overall Taste,[6],6.17
same,Saltiness,[6],6.13
same,Overall Taste,[7],6.97
same,Saltiness,[7],6.92
same,Overall Taste,[8],6.04
same,Saltiness,[8],6.04
